Experimental data as given in patent US20250099633A1, “NTSR1-TARGETED RADIOPHARMACEUTICALS AND CHECKPOINT INHIBITOR COMBINATION THERAPY” (Fusion Pharmaceuticals Inc., priority 2022, published 2025).

Assays:
[1] = system: mouse NTSR1 overexpressing tumors; test: [177Lu]-Compound A biodistribution in CT-26 syngeneic model; assay type: in vivo; details: 6-48 hours post injection
Protocol: Tumor uptake was maintained at 2.5-7% injected dose/g (ID/g) from 6-48 hours post injection.

CT-26-mNTSR1 tumor [2] = test: Efficacy study in immunocompetent CT-26-mNTSR1 tumor bearing-mice (tumor volume); assay type: in vivo, mouse; details: different doses; CT-26-mNTSR1 syngeneic mice with an intact immune system
CT-26-mNTSR1 tumor [3] = test: Combination with checkpoint inhibitors, relative tumor volume in the CT-26-mNTSR1 mouse model; assay type: in vivo
Protocol: An in vivo study was conducted to test the effect of [^225Ac]-Compound A (as described in Example 3) combined with checkpoint inhibitors, α-CTLA-4 and α-PD-1 antibodies, on relative tumor volume in the CT-26-mNTSR1 mouse model.

CT-26-mNTSR1 tumor [4] = test: Combination with checkpoint inhibitors, survival in the CT-26-mNTSR1 mouse model; assay type: in vivo; details: for Overall survival: intravenous
Protocol: An in vivo study was conducted to test the effect of [^225Ac]-Compound A (as described in Example 3) combined with checkpoint inhibitors, α-CTLA-4 and α-PD-1 antibodies, on survival in the CT-26-mNTSR1 mouse model.
Separately, an in vivo study was conducted to test the effect of [^225Ac]-Compound A (as
described in Example 4) at a different dosage in combination with checkpoint inhibitors, α-CTLA-4 and α-PD-1 antibodies, on survival in the CT-26-mNTSR1 mouse model.

For `COc1cccc(OC)c1-c1cc(C(=O)NC2(C(=O)O)C3CC4CC(C3)CC2C4)nn1-c1ccc(C(=O)N(C)CCCN(C)CCCN(C)C(=O)CN2CCN(CC(=O)O)CCN(CC(=O)O)CCN(CC(=O)O)CC2)cc1C(C)C` (stereo not drawn) [[177Lu]-Compound A, metal not drawn], which Tumor uptake [1] is on record?
The Tumor uptake was 2.5-7 % injected dose/g (ID/g).

Which “Efficacy in reducing tumor volume” value (CT-26-mNTSR1 tumor [2]) does the source give for `COc1cccc(OC)c1-c1cc(C(=O)NC2(C(=O)O)C3CC4CC(C3)CC2C4)nn1-c1ccc(C(=O)N(C)CCCN(C)CCCN(C)C(=O)CN2CCN(CC(=O)O)CCN(CC(=O)O)CCN(CC(=O)O)CC2)cc1C(C)C` (stereo not drawn) [[^225Ac]-Compound A, metal not drawn] here?
Its value is “enhanced efficacy in reducing tumor volume”.

What about the “Efficacy (tumor volume)” value (CT-26-mNTSR1 tumor [3]; 0.185 MBq/kg or 0.555 MBq/kg single-dose, intravenous, co-administered with 5 mg/kg of CTLA-4 or PD-1 or both) of the same compound?
Its value is “increased efficacy was observed including tumor suppression”.

And the “Tumor regression, duration” value (CT-26-mNTSR1 tumor [3]; 0.555 MBg/kg dose, co-administration with both CTLA-4 and PD-1)?
Its value is at least 40 days post-treatment.

What about the Tumor volume (CT-26-mNTSR1 tumor [3]; 0.555 MBg/kg dose, co-administration with both CTLA-4 and PD-1, compared to vehicle control and 225Ac-radiopharmaceutical alone groups) of the same compound?
The Tumor volume was “significantly smaller tumor volume”.

What about the Tumor volume (CT-26-mNTSR1 tumor [3]; 0.555 MBq/kg single-dose, intravenous, alone, relative to the vehicle control group) of the same compound?
The Tumor volume was “greater reductions in tumor volume”.

What about the Overall survival (CT-26-mNTSR1 tumor [4]; 0.185 MBq/kg single-dose, with 5 mg/kg α-CTLA-4 or α-PD-1 (or both), compared to vehicle control or [225Ac]-Compound A alone) of the same compound?
Its Overall survival is “increased overall survival”.

And the Overall survival (CT-26-mNTSR1 tumor [4]; 0.555 MBq/kg single-dose, with 5 mg/kg α-CTLA-4 or α-PD-1, compared to the vehicle and [225Ac]-Compound A single treatment group)?
Its Overall survival is “increased overall survival”.

And the Survival (CT-26-mNTSR1 tumor [4]; 0.555 MBq/kg, co-administration with both α-CTLA-4 and α-PD-1, compared to vehicle control or [225Ac]-Compound A with or without either antibody)?
Its Survival is “increased survival”.
